From patent US20050101783A1, “N-(heterocycle-methyl)alkylamine derivative, process for producing the same, and bactericide” (priority 2000, published 2005)

Experiments:
Format in all cases: in vivo
[1] = tested on: Erysiphe graminis f. sp tritici; experiment: Preventive effect test of wheat powdery mildew (wettable powder sprayed on potted wheat, preventive value); settings: wettable powder suspended at 250 mg/l, sprayed on potted wheat at 100 l/10 a; morbidity investigated 9th to 14th day after inoculation
Protocol: (Preventive Effect Test of Erysiphe graminis f. sp […])
The wettable powders obtained by using each compound were diluted with water and were suspended at a predetermined concentration (250 mg/l) and the solution was sprayed over the first to second leaf stage-wheat (variety. Agriculture and Forestry No. 64) cultivated by using a square plastic pot (size: 6.4 cm×6.4 cm) at a rate of 100 1/10 a (are).
After the sprayed leaves were air-dried, the suspension of the spore of Erysiphe graminis f. sp tritici germ sampled from the contracted leaves were sprayed and inoculated over the sprayed leaf after air-dried, the leaves were kept at 20 to 24° C. under a high-humidity condition for 24 hours, then, the leaves were subjected to still standing in a greenhouse (temperature: 20 to 24° C. and relative humidity: 20 to 70 RH). The morbidity rate was investigated based on the following investigation standard on 9th to 14th day after the inoculation and the preventive value was calculated according to the following formula 1.

cucumber gray mold = experiment: Preventive effect test of cucumber gray mold (wettable powder sprayed on potted cucumber, preventive value); settings: wettable powder suspended at 250 mg/l, sprayed on potted cucumber at 100 l/10 a; morbidity investigated 4th to 6th day after inoculation
Protocol: (Preventive Effect Test of Cucumber Gray Mold)
The wettable powders obtained by using each compound were diluted with water and were suspended at a predetermined concentration (250 mg/l) and the solution was sprayed over the first to second leaf stage-cucumber (variety: “Sagamihanpakufushinari”) cultivated by using a square plastic pot (size: 6.4 cm×6.4 cm) at a rate of 100 1/10 a.
After the sprayed leaves were air-dried, a paper disk where the solution of the spore of the gray mold suspended with water was impregnated was put on the aforementioned sprayed leaves, and the leaves were contracted in a glass greenhouse (temperature: 20 to 24° C. and relative humidity: 20 to 70 RH). The morbidity rate was investigated based on the following investigation standard on 4th to 6th day after the inoculation and the preventive value was calculated according to the following formula 2.

cucumber powdery mildew = experiment: Preventive effect of cucumber powdery mildew (wettable powder sprayed on potted cucumber, preventive value); settings: wettable powder suspended at 100 mg/l, sprayed on potted cucumber at 100 l/10 a; morbidity investigated 9th to 14th day after inoculation
Protocol: (Preventive Effect of Cucumber Powdery Mildew)
The wettable powders obtained by using each compound were diluted with water and were suspended at a predetermined concentration (100 mg/l) and the solution was sprayed over the first to second leaf stage-cucumber (variety: “Sagamihanpakufushinari”) cultivated by using a square plastic pot (size: 6.4 cm×6.4 cm) at a rate of 100 1/10 a.
After the sprayed leaves were air-dried, the spore was inoculated over the aforementioned air-dried leaves from the contracted leaves with a brush, and the contraction was performed in a glass greenhouse (temperature: 20 to 24° C. and relative humidity: 20 to 70 RH). The morbidity rate was investigated based on the same investigation standard as that in the preventive effect test of the cucumber gray mold on 9th to 14th day after the inoculation, and the preventive value was calculated according to the aforementioned formula 2.

| SMILES | Preventive Value (%) [1] [%] | Preventive Value (%) (cucumber gray mold) | Preventive Value (%) (cucumber powdery mildew) |
| --- | --- | --- | --- |
| COCc1ccc(CC(C)(C)CN(C)Cc2ccc(Cl)nc2)cc1 [Compound I-88] | 100 | 100 | 100 |
| CN(Cc1ccc(Cl)nc1)CC(C)(C)Cc1cccc(Cl)c1 [Compound I-29] | – | 100 | – |
| CN(Cc1cnc(Cl)s1)CC(C)(C)Cc1ccc(OC(F)(F)F)cc1 [Compound I-142] | 100 | 100 | 100 |
| CN(Cc1ccc(Cl)nc1)CC(C)(C)Cc1cc(Cl)cc(Cl)c1 [Compound I-34] | – | 100 | – |
| CC(C)Oc1ccc(CC(C)(C)CN(C)Cc2ccc(Cl)nc2)cc1 [Compound I-74] | 100 | 100 | 100 |
| CC(CCc1ccc(Cl)cc1Cl)CN(C)Cc1ccc(Cl)nc1 (stereo not drawn) [Compound I-56] | 100 | – | 100 |
| CC(CC1CCC(C(C)(C)C)CC1)CN(C)Cc1ccc(Cl)nc1 (stereo not drawn) [Compound I-62, N-[3-(4-t-butylcyclohexyl)-2-methylpropyl]-6-chloro-N-methyl-3-pyridylmethylamine] | 100 | 100 | – |
| Cc1ncc(CN(C)CC(C)(C)Cc2ccc(C(C)(C)C)cc2)cn1 [Compound I-21] | – | 100 | – |
| CN(Cc1cccnc1Cl)CC(C)(C)Cc1ccc(C(C)(C)C)cc1 [Compound I-20] | – | 100 | – |
| CN(Cc1ccc(F)nc1)CC(C)(C)Cc1ccc(C(C)(C)C)cc1 [Compound I-19] | 100 | 100 | 100 |
| CN(Cc1ccc(Cl)nc1)CC(C)(C)Cc1cc(Cl)ccc1Cl [Compound I-32] | – | 100 | – |
| CC(CCCC1CCC(C(C)(C)C)CC1)CN(C)Cc1ccc(Cl)nc1 (stereo not drawn) [Compound I-66] | – | 100 | – |
| CN(Cc1cccnc1)CC(C)(C)Cc1ccc(C(C)(C)C)cc1 [Compound I-16] | – | 100 | – |
| CN(Cc1ccc(Cl)nc1)CC(C)(C)Cc1ccc(Cl)c(Cl)c1 [Compound I-33] | – | 100 | – |
| CCC(=NOC)c1ccc(CC(C)(C)CN(C)Cc2ccc(Cl)nc2)cc1 [Compound I-121] | 100 | 100 | 100 |
| CN(Cc1ccc(Cl)nc1)CC(C)(C)Cc1ccc(OCC(F)(F)C(F)F)cc1 [Compound I-84] | 100 | 100 | 100 |
| CN(Cc1ccc(Br)nc1)CC(C)(C)Cc1ccc(OC(F)(F)F)cc1 [Compound I-139] | 100 | 100 | 100 |
| CCON=C(C)c1ccc(CC(C)(C)CN(C)Cc2ccc(Cl)nc2)cc1 [Compound I-117] | 100 | 100 | 100 |
| CN(Cc1ccc(Cl)nc1)CC(C)(C)Cc1ccc(C(C)(C)C)cc1 [Compound I-25] | – | 100 | – |
| CN(Cc1ccc(Cl)nc1)CC(C)(C)Cc1ccc(Cl)cc1Cl [Compound I-31] | – | 100 | – |
| CN(Cc1ccc(F)nc1)CC(C)(C)Cc1ccc(OC(F)(F)F)cc1 [Compound I-140] | 100 | 100 | 100 |
| CN(Cc1ccc(Cl)nc1)CC(C)(C)Cc1ccc(Oc2ccccc2)cc1 [Compound I-35] | – | 100 | – |
| CN(Cc1ccc(Cl)nc1)CC(C)(C)Cc1ccc(OC(C)(C)C)cc1 [Compound I-73] | 100 | 100 | 100 |
| CN(Cc1ccc(Cl)nc1)CC(C)(C)Cc1ccc(OC(F)(F)C(F)F)cc1 [Compound I-83] | 100 | 100 | 100 |
| CN(Cc1ccc(Cl)nc1)CC(C)(C)CC1CCC(C(C)(C)C)CC1 (stereo not drawn) [Compound I-63] | – | 100 | – |

| SMILES | Preventive Value (%) [1] [%] | Preventive Value (%) (cucumber gray mold) | Preventive Value (%) (cucumber powdery mildew) |
| --- | --- | --- | --- |
| CN(Cc1ccc(Cl)nc1)CC(C)(C)Cc1cccc(OC(F)(F)F)c1 [Compound I-46] | – | 100 | – |
| CCOC(C)c1ccc(CC(C)(C)CN(C)Cc2ccc(Cl)nc2)cc1 (stereo not drawn) [Compound I-96] | 100 | 100 | 100 |
| CN(Cc1ccc(Cl)nc1)CC(C)(C)CCc1ccc(C(C)(C)C)cc1 [Compound I-51] | – | 100 | – |
| CON=C(C)c1ccc(CC(C)(C)CN(C)Cc2ccc(Cl)nc2)cc1 [Compound I-116] | 100 | 100 | 100 |
| CC(CCc1ccc(C(C)(C)C)cc1)CN(C)Cc1ccc(Cl)nc1 (stereo not drawn) [Compound I-50] | – | 100 | – |
| CC(CCC1CCC(C(C)(C)C)CC1)CN(C)Cc1ccc(Cl)nc1 (stereo not drawn) [Compound I-64] | – | 100 | – |
| CCOCc1ccc(CC(C)(C)CN(C)Cc2ccc(Cl)nc2)cc1 [Compound I-89] | 100 | 100 | 100 |
| CN(Cc1ccc(Cl)nc1)CC(C)(C)Cc1ccc2c(c1)OC(F)(F)O2 [Compound I-49] | 100 | – | 100 |
| CN(Cc1ccc(Cl)nc1)CC(C)(C)Cc1cccc(Oc2cccc(C(F)(F)F)c2)c1 [Compound I-40] | – | 100 | – |
| CN(Cc1ccc(Cl)nc1)CC(C)(C)Cc1cccc(OC(F)(F)C(F)F)c1 [Compound I-48] | – | 100 | – |
| CN(Cc1ccc(C(F)(F)F)nc1)CC(C)(C)Cc1ccc(OC(F)(F)F)cc1 [Compound I-141] | 100 | 100 | 100 |
| COC(C)c1ccc(CC(C)(C)CN(C)Cc2ccc(Cl)nc2)cc1 (stereo not drawn) [Compound I-95] | 100 | 100 | 100 |
| CC(CCCc1ccc(C(C)(C)C)cc1)CN(C)Cc1ccc(Cl)nc1 (stereo not drawn) [Compound I-52] | – | 100 | – |
| CN(Cc1ccc(Cl)nc1)CC(C)(C)Cc1ccc(Cl)cc1 [Compound I-28] | 100 | 100 | – |
| CC(Cc1ccc(Cl)cc1Cl)CN(C)Cc1ccc(Cl)nc1 (stereo not drawn) [Compound (a), 6-chloro-N-methyl-N-[2-methyl-3-(2,4-dichlorophenyl)propyl]-3-pyridylmethylamine, reference compound] | 60 | 80 | 70 |
| CC(CCc1cccc(Oc2ccccc2)c1)CN(C)Cc1ccc(Cl)nc1 (stereo not drawn) [Compound I-54] | – | 100 | – |
| Cc1ccc(Oc2cccc(CC(C)(C)CN(C)Cc3ccc(Cl)nc3)c2)cc1 [Compound I-39] | – | 100 | – |
| CN(Cc1ccc(Cl)nc1)CC(C)(C)Cc1ccc(OCC(F)(F)C(F)(F)F)cc1 [Compound I-85] | 100 | 100 | 100 |
| CC(Cc1cccc(Cl)c1)CN(C)Cc1ccc(Cl)nc1 (stereo not drawn) [Compound (b), 6-chloro-N-methyl-N-[2-methyl-3-(3-chlorophenyl)propyl]-3-pyridylmethylamine, reference compound] | 70 | 30 | 80 |
| CN(Cc1ccc(Cl)nc1)CC(C)(C)Cc1ccc(OCC(F)(F)F)cc1 [Compound I-82] | 100 | 100 | 100 |
| CN(Cc1ccc(Cl)nc1)CC(C)(C)Cc1ccc(F)c(Oc2ccccc2)c1 [Compound I-38] | – | 100 | – |
| CN(Cc1ccc(Cl)nc1)CC(C)(C)Cc1cccc(Oc2ccccc2)c1 [Compound I-36] | – | 100 | – |
| CC(C)Oc1cccc(CC(C)(C)CN(C)Cc2ccc(Cl)nc2)c1 [Compound I-27] | 100 | – | – |
| CN(Cc1ccc(Cl)nc1)CC(C)(C)CCc1cccc(Oc2ccccc2)c1 [Compound I-55] | – | – | 100 |
